The values below come from US5948635A, “Totally Synthetic Affinity Reagents” (University of North Carolina at Chapel Hill, priority 1995, dated 1999).

Assay [1] has as its target calmodulin (Homo sapiens, UniProt P0DP23). Briefly: Competition with SEQ ID NO 176 peptide binding to calmodulin. The settings on record: FIG. 20, FIG. 23. From the text: To examine where the SEQ ID NO 176 peptide bound the CaM molecule, we attempted to block binding with other peptides that have been previously shown to bind to the central, linker region of CaM (See Persechini and Kretsinger, 1988, J. Cardiovasc. Pharmacol 12:S1-12; Ikura et al., 1992, Cell Calcium 13:391-400; Chapman et al., 1992, Biochemistry 31:12819-25; Meador et al., 1992, Science 257: 1251-1255). It is this region of CaM that binds various proteins to regulate their activity in a Ca^2+ -dependent manner.
If the site responsible for binding of the CaM specific TSARs to CaM were only a five or six residue peptide, then one would have expected to isolate about 10-20 CaM binding TSARs from the TSAR-12 library. However, since only one particular CaM binding TSAR was repeatedly isolated, it appears that the site of interaction between the CaM specific TSAR and CaM is complex, i.e., the site requires more than simply 5 or 6 residues. To illustrate regions of the SEQ ID NO 176 that are involved in binding to CaM, the ability of 4 modified peptides to compete with SEQ ID NO 176 binding for calmodulin were examined. The modified peptides were (a) the N-terminal 13 residues […] SEQ ID NO 185; (b) the C-terminal 13 residues […] SEQ ID NO 186; (c) the SEQ ID NO 176 peptide where, at position 4, W was changed to A--[…] SEQ ID NO. 184; and (d) a peptide having the reverse sequence […] SEQ ID NO. […]

Assay [2] concerns calcineurin. Briefly: CaM-12.1 phage binding to calcineurin. The method, then:
(§1) The binding properties of the CaM-12.1 TSAR were further examined in several ways. First, the ability of CaM-12.1 phage to bind other calcium-binding proteins was tested. […] Second, the ability of natural calmodulin binding peptides and proteins to compete for binding of the CaM-12.1 phage with CaM was tested. […] Third, the ability of a synthetic non-peptide CaM-antagonist, W7, (#681629; Calbiochem, San Diego, Calif.), was tested for its ability to compete for binding of CaM-12.1 to CaM. […] In summary: (1) CaM-12.1 binds CaM specifically, and not because it is a high-affinity Ca^2 +-binding protein; (2) CaM-12.1 binds CaM at a site partially overlapping or influenced, by the binding sites of CaM-dependentprotein kinase peptide, melittin and W7.

The test system of assay [3] is vitamin D calcium-binding protein. Briefly: CaM-12.1 phage binding to wells coated with vitamin D calcium-binding protein. The settings on record: ELISA plate wells. The method, then: as §1
The subject of assay [4] is parvalbumin. Briefly: CaM-12.1 phage binding to wells coated with parvalbumin. To be noted: ELISA plate wells. The method, then:
as §1

Assay [5] concerns B139 monoclonal antibody. Briefly: Competitive binding ELISA: inhibition of B139 binding to LNCaP extract. More on the design: species or system murine. To be noted: B139 9 ng/ml; FIG. 13. The method, then: (§2) The TSAR-based peptide (SEQ ID NO 31) concentration ranged from 1.75 to 1130 nM. […] Two additional control peptides (amide form) having the following amino acid sequences: RGD-21: NH2 -[…]-CONH2 (SEQ ID NO 32) and CYT-379: NH2 -[…]-CONH2 (SEQ ID NO 33) were also evaluated. Herein these control peptides are referred to as Control Peptide 1 and Control Peptide 2. […] The B139 monoclonal antibody, which is a murine IgG1 monoclonal antibody that reacts with all human epithelial cells, recognizes a different antigen in the LNCaP extract from that recognized by the 7E11-C5 antibody. The control B139 monoclonal antibody was used at a concentration of 9 ng/ml. The results obtained are illustrated in FIG. 13.

Assay [6] relates to 7E11-C5 monoclonal antibody. Briefly: Competitive binding ELISA: inhibition of 7E11-C5 binding to LNCaP cell lysate antigen. More on the design: species or system mouse. To be noted: peptides, amide form; FIG. 13. The method, then: Each well of a polyvinylchloride 96-well ELISA plate (Cooke, Alexandria, Va.) was coated with an LNCAP human prostate carcinoma cell (ATCC # CRL 1740) lysate. Lysates were prepared by harvesting confluent LNCaP cell cultures, resuspending cells in 4 volumes of 1 mM MgCl2 for 5 minutes, mixing with 2 μg of DNase (Boehringer Mannheim, Indianapolis, Ind.) and homogenizing using 40 strokes in a Dounce homogenizer (Wheaton, Millville, N.J.). LNCaP lysate (50 μl per well of a 1:50 dilution in 0.1×PBS [Dulbecco's pH 7.2, JRH, Denver, Pa.]) was air dried overnight at 37° C. onto wells of the ELISA plate. ELISA plates were blocked with 150 μl/well of 1% BSA (Pentex Fraction V, Miles, Kankakee, Ill.) in PBS for 60 minutes at room temperature.
The blank control consisted of blocking solution in the absence of primary antibody. 7E11-C5 monoclonal antibody pre-incubated with buffer without any phage (MAb) was the positive control. The expression vector m663 phage was also employed as a non-specific phage control.
Plates were washed 4 times with 0.05% Tween-20 in PBS. Bound monoclonal antibody 7E11-C5 was detected by: (1) incubating with 50 μl/well of anti-mouse IgG1 -HRP (Fisher Biotech, Orangeburg, N.Y.) diluted to 0.4 ng/ml in 1% BSA-PBS, for 60 minutes at room temperature; (2) washing plates 6 times with 0.05% Tween-20 in PBS; and (3) adding 100 μl/well ABTS substrate [200 μl ABTS, (Boehringer Mannheim), 10 ml citrate buffer (pH 4), 10 μl H2 O2 ]. Optical density of the reactions products was determined by endpoint analysis on a Multiscan plate reader (Molecular Devices, Menlo Park, Calif.). The competitive inhibition (%) was determined by comparing the reactivity of the positive control to the test samples.
as §2

Assay [7] concerns 7E11-C5 monoclonal antibody. Briefly: ELISA of antibody binding to immobilized peptide. Set-up: species or system mouse. The settings on record: peptide adsorbed on polyvinylchloride plates, 0.5-500 μg/ml; FIG. 14, 15. The method, then: (§3) Peptides, diluted in 10% PBS (Dulbecco's, pH 7.2, Hazelton), were immobilized by adsorption on polyvinylchloride plates. SEQ ID NO 31 (amide form) was diluted in 10% PBS at 0.5, 5, 50 or 500 μg/ml. Control peptide 2 in 10% PBS at the same range of concentrations served as the control. A 50 μl volume of the test or control peptide solution was added to each well and incubated overnight at 4° C. The peptide solution was removed and 10% BSA-PBS was added as blocking solution. […] Bound 7E11-C5 monoclonal antibody was detected with anti-mouse IgG1 -HRP as described above herein.

The subject of assay [8] is B139 monoclonal antibody. Briefly: ELISA of control antibody binding to immobilized peptide. More on the design: species or system murine. The settings on record: peptide coated at 5 μg/ml; FIG. 15. The method, then: as §3

“STVPRAIEDSLRGGAARAQTRLASWK [SEQ ID NO. 184]”: the “competition with binding of peptide SEQ ID NO 176 to CaM” value in assay [1] is given as “none of the four peptides were able to compete”.
On to “VPRWIEDSLRGGAARAQTRLASA [CaM-12.1]”, for which the binding to calcineurin entry in assay [2] was “did not bind”. Moreover, in assay [3], the “binding to vitamin D calcium-binding protein” value was “failed to bind”. In assay [4], the binding to parvalbumin result is reported as “failed to bind”.
Take “GAARAQTRLASWK [SEQ ID NO 186, C-terminal 13 residues]”: the “competition with binding of peptide SEQ ID NO 176 to CaM” value in assay [1] is “none of the four peptides were able to compete”.
In the case of “NH2 -SYGRGDVRGDFKCTCCA-CONH2 (H-SYGRGDVRGDFKCTCCA-NH2; cysteine pairing not given here) [Control Peptide 2]”, in assay [5], the “competitive inhibition of B139 binding to LNCaP extract by peptide” value was “neither SEQ ID NO 31 (amide form) nor either of Control Peptide 1 and Control Peptide 2 competitively inhibited the binding”. Also, the “competitive inhibition of 7E11-C5 binding to LNCaP extract by peptide” value in assay [6] was “did not effectively compete”. For the same substance, in assay [7], the “binding of 7E11-C5 to immobilized peptide” value is “did not bind to either of the tested antibodies”. Besides, the “binding of B139 to immobilized peptide” value in assay [8] is recorded as “did not bind to either of the tested antibodies”.
